# Results: ChEMBL document CHEMBL1201862, “PubChem BioAssay data set” (2004)
# Active and inactive are the calls of the source.
# How the values were obtained:
# [1] = target: T1, Type-1 angiotensin II receptor (Homo sapiens, UniProt P30556); experiment: agonist activity at AGTR1 – cell-based, uHTS hits, selectivity assay for APJ receptor agonist project, dose response (AID 488865); type: functional;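 further: beta-arrestin recruitment to AT1 measured by enzyme fragment complementation luminescence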
# T1 sequence (P30556 whole entry): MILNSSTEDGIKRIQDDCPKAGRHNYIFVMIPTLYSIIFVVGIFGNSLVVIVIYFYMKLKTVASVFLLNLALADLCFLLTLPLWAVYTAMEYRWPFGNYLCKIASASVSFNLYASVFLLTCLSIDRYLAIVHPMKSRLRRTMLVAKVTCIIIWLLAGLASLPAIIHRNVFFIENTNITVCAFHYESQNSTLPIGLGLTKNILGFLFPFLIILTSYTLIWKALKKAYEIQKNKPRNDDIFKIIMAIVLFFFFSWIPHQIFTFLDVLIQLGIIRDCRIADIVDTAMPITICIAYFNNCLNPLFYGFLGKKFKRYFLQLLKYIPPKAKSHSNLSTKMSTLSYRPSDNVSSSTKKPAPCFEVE
# SUMO-activating enzyme = SUMO-activating enzyme (Homo sapiens, UniProt Q9UBT2); experiment: blockers of UBC9-mediated SUMO conjugation – biochemical, AlphaScreen, SUMOylation inhibitor project, confirmation (AID 2018); type: functional
# [2] = target: T2, Dual specificity protein phosphatase 6 (Rattus norvegicus, UniProt Q64346); experiment: inhibition of rat DUSP6 enzyme activity – biochemical, in vitro, primary screen (AID 425)
# T2 sequence (Q64346 whole entry): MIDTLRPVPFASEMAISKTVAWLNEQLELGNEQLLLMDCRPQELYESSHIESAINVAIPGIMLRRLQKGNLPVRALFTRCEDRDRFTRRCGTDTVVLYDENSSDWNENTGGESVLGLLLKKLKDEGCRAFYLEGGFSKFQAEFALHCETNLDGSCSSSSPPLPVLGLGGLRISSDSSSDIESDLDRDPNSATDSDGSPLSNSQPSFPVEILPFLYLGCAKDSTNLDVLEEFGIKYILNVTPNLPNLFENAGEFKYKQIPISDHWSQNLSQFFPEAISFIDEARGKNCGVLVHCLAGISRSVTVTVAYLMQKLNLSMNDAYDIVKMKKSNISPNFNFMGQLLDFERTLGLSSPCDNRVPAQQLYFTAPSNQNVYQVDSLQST
# [3] = target: DNA dC->dU-editing enzyme APOBEC-3G (Homo sapiens, UniProt Q9HC16); experiment: Dose Response confirmation of small molecule APOBEC3G DNA Deaminase Inhibitors via a fluorescence-based single-stranded DNA deaminase assay. [Related pubchem assays (depositor defined):AID493012, AID493028]; type: functional
# Chain of DNA dC->dU-editing enzyme APOBEC-3G (Q9HC16 whole entry): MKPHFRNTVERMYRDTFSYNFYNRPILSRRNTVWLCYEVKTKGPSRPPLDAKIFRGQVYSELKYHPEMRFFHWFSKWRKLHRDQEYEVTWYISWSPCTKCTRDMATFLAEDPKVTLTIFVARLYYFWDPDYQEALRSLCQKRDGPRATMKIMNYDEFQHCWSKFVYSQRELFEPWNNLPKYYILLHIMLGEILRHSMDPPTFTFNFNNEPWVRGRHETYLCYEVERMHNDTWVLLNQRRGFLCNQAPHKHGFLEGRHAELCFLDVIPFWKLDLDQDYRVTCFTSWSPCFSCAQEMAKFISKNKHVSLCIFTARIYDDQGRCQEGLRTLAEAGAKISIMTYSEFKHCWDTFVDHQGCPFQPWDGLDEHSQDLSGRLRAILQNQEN
# [4] = target: T3, Dual specificity protein phosphatase 3 (Homo sapiens, UniProt P51452); experiment: VHR1 phosphatase inhibitors, primary screen, biochemical, absorbance, uHTS (AID 1654)
# T3 sequence (P51452 whole entry): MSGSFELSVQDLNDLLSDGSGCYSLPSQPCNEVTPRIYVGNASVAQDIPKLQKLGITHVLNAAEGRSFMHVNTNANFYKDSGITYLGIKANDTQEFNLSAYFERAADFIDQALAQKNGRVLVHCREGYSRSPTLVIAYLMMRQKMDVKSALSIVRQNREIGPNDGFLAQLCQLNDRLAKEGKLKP
# [5] = target: T3, Dual specificity protein phosphatase 3; experiment: VHR1 phosphatase inhibitors, biochemical (AID 1878)
# [6] = decrease of insulin promoter-GFP reporter – imaging, high-content screening, mouse beta cells (AID 1628); type: functional; conditions: MIN6
# [7] = NIH3T3 cell viability loss – ATP luminescence, mouse fibroblasts, counter-screen, dose response (AID 2010); type: functional, cell-based;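 further: cells exposed to compound for about 90 hours before reading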
# [8] = MIN6 cell viability loss – mouse insulinoma, cytotoxicity control, dose response (AID 2122); type: functional;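 further: confirmatory high-throughput counterscreen run to flag cytotoxic compounds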
# [9] = Trypanosoma cruzi growth suppression in host cells – NIH3T3 host cells, beta-gal luminescence, confirmation (AID 2044); type: functional, cell-based;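 further: intracellular parasites grown in NIH/3T3 mouse fibroblasts as host cells; luminescent beta-galactosidase reporter signal from transgenic T. cruzi replicating inside host cells; inhibitors lower the luminescence signal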
# Vero = experiment: mammalian cell viability reduction – secondary assay, cytotoxicity control for West Nile virus antiviral project, dose response (AID 1650); type: functional; conditions: Chlorocebus sabaeus
# Paired box protein Pax-8 = Paired box protein Pax-8 (Homo sapiens, UniProt Q06710); experiment: PAX8 transcriptional activity inhibition in RMG-I – RMG-I cells, luciferase, cherry-pick, dose response (AID 687027); type: functional, cell-based;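 further: luciferase reporter driven by Pax8 target thyroperoxidase promoter measured by SteadyGlo luminescence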
# [10] = target: T4, Ubiquitin-conjugating enzyme E2 N (Homo sapiens, UniProt P61088); type: functional
# T4 sequence (P61088 whole entry): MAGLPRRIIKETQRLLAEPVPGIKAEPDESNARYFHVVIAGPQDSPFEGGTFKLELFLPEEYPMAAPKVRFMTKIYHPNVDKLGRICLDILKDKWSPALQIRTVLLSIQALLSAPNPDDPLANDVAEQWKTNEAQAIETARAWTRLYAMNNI
# Bcl-2-related protein A1 = target: T5, Bcl-2-related protein A1 (Mus musculus, UniProt Q07440); type: functional;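 further: confirmatory dose–response counterscreen on Bfl-1, used to check hits from a UBC13 polyubiquitin inhibitor campaign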
# T5 sequence (Q07440 whole entry): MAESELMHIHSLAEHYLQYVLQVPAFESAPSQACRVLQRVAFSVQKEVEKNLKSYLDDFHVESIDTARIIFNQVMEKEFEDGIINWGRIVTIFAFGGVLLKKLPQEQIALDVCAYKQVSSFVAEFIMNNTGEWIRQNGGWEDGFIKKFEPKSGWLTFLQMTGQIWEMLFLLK
# [11] = target: T4, Ubiquitin-conjugating enzyme E2 N; type: functional; remark: listed apart in the source
# [12] = target: Glyceraldehyde-3-phosphate dehydrogenase (Homo sapiens, UniProt P04406)
# Chain of Glyceraldehyde-3-phosphate dehydrogenase (P04406 whole entry): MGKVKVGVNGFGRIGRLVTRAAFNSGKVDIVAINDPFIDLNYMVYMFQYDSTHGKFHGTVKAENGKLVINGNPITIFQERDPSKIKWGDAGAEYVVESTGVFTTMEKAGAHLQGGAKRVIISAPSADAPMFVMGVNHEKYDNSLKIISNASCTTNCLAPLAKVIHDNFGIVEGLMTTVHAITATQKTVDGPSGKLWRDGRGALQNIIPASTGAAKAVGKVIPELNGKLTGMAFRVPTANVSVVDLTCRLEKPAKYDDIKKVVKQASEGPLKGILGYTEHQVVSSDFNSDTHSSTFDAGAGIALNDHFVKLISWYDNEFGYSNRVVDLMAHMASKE
# [13] = target: T6, Alkaline phosphatase, tissue-nonspecific isozyme (Homo sapiens, UniProt P05186); experiment: potency against alkaline phosphatase TNAP – biochemical, luminescent, dose response, SAR follow-up (AID 1056)
# T6 sequence (P05186 whole entry): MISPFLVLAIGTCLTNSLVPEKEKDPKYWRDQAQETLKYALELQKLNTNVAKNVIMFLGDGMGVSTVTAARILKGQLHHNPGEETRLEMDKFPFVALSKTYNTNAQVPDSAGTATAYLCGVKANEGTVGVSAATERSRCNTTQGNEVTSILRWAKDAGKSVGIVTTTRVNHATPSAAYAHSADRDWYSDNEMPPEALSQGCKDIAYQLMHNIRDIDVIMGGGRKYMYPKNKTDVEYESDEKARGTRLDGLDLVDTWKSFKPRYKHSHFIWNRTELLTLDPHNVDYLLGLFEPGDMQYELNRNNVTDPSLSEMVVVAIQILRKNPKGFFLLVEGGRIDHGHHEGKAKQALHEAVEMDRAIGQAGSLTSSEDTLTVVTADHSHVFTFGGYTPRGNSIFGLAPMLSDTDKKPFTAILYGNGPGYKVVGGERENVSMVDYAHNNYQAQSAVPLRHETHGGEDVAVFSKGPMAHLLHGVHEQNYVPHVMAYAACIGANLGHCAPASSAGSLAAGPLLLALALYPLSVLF
# [14] = target: Alkaline phosphatase, placental type (Homo sapiens, UniProt P05187); experiment: human placental alkaline phosphatase inhibition – biochemical, luminescence, confirmation (AID 1512); type: functional
# Chain of Alkaline phosphatase, placental type (P05187 whole entry): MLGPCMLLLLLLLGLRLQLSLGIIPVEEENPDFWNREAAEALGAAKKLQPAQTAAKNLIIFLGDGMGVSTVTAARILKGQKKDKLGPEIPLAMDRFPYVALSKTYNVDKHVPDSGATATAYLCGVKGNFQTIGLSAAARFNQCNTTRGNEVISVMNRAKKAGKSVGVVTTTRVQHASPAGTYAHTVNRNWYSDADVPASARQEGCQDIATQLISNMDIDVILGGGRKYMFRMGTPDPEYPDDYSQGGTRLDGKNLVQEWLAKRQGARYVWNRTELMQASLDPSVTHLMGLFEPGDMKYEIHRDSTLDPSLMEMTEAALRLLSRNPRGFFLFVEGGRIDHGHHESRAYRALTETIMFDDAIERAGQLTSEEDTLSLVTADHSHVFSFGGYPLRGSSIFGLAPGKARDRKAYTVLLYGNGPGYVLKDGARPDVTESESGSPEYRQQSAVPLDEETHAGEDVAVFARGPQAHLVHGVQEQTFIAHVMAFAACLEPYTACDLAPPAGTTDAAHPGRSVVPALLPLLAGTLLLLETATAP
# [15] = target: Peroxisome proliferator-activated receptor gamma/Nuclear receptor coactivator 1 (Homo sapiens, UniProt P37231); experiment: (§1) TR-FRET dose response biochemical High Throughput Screening assay for agonists of the steroid receptor coactivator 1 (SRC-1) recruitment by the peroxisome proliferator-activated receptor gamma (PPAR gamma): non-selective agonists. [Related pubchem assays (depositor defined):AID1300, AID1808, AID504735, AID631]; type: protein assay
# [16] = target: Peroxisome proliferator-activated receptor gamma/Nuclear receptor coactivator 3 (Homo sapiens, UniProt P37231); experiment: as §1, with “3 (SRC-3)” for “1 (SRC-1)”, “assays: 1301 (Confirmation screen.), 1048 (Primary screen.)]” for “assays (depositor defined):AID1300, AID1808, AID504735, AID631]”; type: functional
# Chain of Peroxisome proliferator-activated receptor gamma/Nuclear receptor coactivator 3 (P37231 whole entry): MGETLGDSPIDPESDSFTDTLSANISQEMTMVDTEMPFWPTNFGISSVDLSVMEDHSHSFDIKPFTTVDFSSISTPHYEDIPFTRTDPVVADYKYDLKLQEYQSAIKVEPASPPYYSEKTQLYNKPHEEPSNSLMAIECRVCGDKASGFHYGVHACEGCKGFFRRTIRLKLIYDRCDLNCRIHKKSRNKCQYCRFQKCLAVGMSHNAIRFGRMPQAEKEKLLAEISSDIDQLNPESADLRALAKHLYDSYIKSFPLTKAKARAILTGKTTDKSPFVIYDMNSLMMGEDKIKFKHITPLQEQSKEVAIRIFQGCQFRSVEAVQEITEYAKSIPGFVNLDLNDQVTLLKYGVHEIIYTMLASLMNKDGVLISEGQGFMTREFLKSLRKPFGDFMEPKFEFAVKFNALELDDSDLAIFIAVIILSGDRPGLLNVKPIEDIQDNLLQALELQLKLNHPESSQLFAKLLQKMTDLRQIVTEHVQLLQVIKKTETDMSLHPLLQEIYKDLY
# Chain of Peroxisome proliferator-activated receptor gamma/Nuclear receptor coactivator 3 (Q9Y6Q9 whole entry, further chain): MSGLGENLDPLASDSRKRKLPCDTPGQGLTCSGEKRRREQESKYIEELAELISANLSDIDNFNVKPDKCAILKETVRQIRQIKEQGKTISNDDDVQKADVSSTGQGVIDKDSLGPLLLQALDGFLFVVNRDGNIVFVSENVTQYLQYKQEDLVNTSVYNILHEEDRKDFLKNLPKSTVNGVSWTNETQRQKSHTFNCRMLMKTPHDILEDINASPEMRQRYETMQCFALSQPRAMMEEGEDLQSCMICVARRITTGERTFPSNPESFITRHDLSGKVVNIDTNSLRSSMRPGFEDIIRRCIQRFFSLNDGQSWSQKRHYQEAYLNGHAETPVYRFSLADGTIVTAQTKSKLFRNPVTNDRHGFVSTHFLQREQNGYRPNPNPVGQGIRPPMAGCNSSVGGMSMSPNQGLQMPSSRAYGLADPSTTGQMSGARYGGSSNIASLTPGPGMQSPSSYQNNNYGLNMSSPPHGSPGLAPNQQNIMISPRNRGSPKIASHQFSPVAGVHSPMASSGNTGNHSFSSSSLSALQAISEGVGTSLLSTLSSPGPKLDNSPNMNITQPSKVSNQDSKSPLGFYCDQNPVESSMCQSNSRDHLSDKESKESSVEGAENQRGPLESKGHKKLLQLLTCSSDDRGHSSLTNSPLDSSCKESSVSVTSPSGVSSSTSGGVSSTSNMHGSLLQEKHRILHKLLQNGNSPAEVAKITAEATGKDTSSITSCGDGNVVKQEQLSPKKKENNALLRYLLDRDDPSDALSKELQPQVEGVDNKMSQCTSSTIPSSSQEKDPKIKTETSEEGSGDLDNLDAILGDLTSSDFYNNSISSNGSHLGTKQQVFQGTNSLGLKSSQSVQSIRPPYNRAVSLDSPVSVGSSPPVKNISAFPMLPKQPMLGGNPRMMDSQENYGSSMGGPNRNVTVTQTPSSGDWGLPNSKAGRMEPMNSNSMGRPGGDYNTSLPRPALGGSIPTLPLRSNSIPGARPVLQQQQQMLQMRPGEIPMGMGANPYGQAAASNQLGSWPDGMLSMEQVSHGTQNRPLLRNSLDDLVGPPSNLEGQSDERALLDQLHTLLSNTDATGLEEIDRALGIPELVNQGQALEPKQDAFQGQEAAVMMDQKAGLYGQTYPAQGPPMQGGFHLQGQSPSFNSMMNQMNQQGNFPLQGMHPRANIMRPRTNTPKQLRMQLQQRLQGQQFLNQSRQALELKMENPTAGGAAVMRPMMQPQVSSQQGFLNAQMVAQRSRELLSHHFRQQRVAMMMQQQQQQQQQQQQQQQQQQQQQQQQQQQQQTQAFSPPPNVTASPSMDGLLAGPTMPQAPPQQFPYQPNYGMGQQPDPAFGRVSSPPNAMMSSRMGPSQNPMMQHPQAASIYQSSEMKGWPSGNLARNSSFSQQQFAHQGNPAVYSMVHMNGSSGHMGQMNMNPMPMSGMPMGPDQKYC
# [17] = target: Peroxisome proliferator-activated receptor gamma/Nuclear receptor coactivator 2 (Homo sapiens, UniProt P37231); experiment: TR-FRET dose response biochemical High Throughput Screening assay for agonists of the steroid receptor coactivator 2 (SRC-2) recruitment by the peroxisome proliferator-activated receptor gamma (PPAR gamma): non-selective agonists. [Related pubchem assays: 1297, 1032 ]; type: functional
# [18] = viability of uninfected HEp-2 cells – cell-based, HTS, cytotoxicity control for RSV inhibitor project, dose response (AID 2410); type: functional; conditions: human respiratory syncytial virus
# [19] = A Cell Based Secondary Assay To Explore Cytotoxicity of Compounds that Sensitize Mycobacterium Tuberculosis to Beta-Lactam Antibiotics.; type: functional
# [20] = target: Lysine-specific demethylase 4C (Homo sapiens, UniProt Q9H3R0); experiment: inhibition of JMJD2C H3K9me3 demethylation – biochemical, DELFIA europium, cherry-picked samples, dose response (AID 488835); type: functional
# Chain of Lysine-specific demethylase 4C (Q9H3R0 whole entry): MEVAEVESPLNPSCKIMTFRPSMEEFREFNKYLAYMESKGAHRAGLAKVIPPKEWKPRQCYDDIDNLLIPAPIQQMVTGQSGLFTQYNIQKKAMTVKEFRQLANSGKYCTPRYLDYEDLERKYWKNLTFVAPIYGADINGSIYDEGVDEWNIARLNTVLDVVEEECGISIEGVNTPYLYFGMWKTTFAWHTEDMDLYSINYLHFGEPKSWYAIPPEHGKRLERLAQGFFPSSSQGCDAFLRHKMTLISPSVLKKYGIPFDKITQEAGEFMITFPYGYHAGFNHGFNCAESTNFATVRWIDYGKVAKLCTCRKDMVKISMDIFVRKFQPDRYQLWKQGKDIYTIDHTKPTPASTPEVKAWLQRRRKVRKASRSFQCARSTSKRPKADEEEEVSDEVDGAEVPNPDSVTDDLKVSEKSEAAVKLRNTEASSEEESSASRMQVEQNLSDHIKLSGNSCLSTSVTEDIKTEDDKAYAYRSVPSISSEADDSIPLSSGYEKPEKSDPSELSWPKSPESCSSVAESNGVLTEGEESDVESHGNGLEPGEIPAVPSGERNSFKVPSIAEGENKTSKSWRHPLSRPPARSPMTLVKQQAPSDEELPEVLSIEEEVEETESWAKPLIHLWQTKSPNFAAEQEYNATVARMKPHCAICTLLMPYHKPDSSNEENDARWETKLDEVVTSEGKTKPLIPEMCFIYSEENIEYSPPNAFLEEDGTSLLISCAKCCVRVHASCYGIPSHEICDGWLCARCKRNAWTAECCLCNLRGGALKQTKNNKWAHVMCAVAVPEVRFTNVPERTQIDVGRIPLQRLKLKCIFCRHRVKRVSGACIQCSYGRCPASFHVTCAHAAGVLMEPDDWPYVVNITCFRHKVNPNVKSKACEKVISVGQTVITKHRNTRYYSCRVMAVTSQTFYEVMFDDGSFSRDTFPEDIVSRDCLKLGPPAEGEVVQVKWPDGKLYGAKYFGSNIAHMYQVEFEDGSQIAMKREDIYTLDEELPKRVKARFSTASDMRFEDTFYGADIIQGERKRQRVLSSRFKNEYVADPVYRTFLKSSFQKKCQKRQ
# HEK293 [21] = experiment: cells; type: functional, cell-based; conditions: Homo sapiens
# [22] = target: Nucleotide-binding oligomerization domain-containing protein 2 (Homo sapiens, UniProt Q9HC29); experiment: inhibition of NOD2-driven NF-kB reporter – cell-based, luminescence, uHTS, HEK293 (AID 1566); type: functional
# HEK293 [23] = experiment: inhibition of NOD1-driven NF-kB reporter – cell-based, luminescence, uHTS, primary screen (AID 1578); type: functional; conditions: Homo sapiens
# HEK293 [24] = experiment: NOD2 signaling inhibitors in MDP-stimulated cells, cell-based, uHTS, luminescence (AID 2001); type: functional; conditions: Homo sapiens
# HEK293 [25] = experiment: cells; type: functional, cell-based; conditions: Homo sapiens; remark: listed apart in the source
# HEK293 [26] = experiment: cells; type: functional, cell-based; conditions: Homo sapiens; remark: listed apart in the source
# Coagulation factor XII = Coagulation factor XII (Homo sapiens, UniProt P00748); type: functional;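 further: activated factor XIIa alpha cleaving a fluorogenic AMC peptide substrate; inhibitor potency from loss of enzyme activity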
# Chain of Coagulation factor XII (P00748 20-372 limits assumed): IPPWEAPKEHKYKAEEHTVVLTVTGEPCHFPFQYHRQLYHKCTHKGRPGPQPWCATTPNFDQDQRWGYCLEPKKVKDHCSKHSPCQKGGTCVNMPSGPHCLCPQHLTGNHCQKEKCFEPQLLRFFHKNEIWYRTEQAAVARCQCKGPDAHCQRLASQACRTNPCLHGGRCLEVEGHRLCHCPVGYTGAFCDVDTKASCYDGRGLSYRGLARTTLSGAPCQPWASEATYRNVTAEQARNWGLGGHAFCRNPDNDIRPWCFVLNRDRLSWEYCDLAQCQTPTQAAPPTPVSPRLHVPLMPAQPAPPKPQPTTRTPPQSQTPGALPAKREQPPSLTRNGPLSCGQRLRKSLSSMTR
# Chain of Coagulation factor XII (P00748 373-615 limits assumed): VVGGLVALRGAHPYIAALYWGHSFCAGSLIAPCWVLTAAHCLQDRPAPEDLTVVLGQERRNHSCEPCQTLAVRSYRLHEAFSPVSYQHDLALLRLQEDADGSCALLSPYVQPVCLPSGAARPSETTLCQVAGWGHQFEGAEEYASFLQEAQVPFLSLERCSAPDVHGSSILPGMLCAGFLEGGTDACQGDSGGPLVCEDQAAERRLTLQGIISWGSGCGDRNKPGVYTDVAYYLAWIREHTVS
smiles,measurement,setting,value
CCC(C)NC(=O)CSC1=Nc2ccccc2C2=NC(CC(=O)NCc3ccccc3)C(=O)N12 (centres undefined),EC50,[1],> 100 µM (inactive)
O=C(Nc1ccc(N2C(=O)C3C4C=CC(C4)C3C2=O)cc1)Nc1cccnc1 (centres undefined),IC50,SUMO-activating enzyme,> 100 µM (inactive)
COC(=O)c1sc(NC(=O)c2cc(-c3ccccc3)nc3ccccc23)c(C#N)c1C,IC50,[2],> 158 µM (not active)
same,IC50,[3],28.6 µM (active)
same,IC50,[4],1.15 µM (active)
same,IC50,[5],2.08 µM (active)
O=c1cc(C(Cl)(Cl)Cl)oc2c1ccc1ccccc12,IC50,[6],1.78 µM (active)
same,EC50,[7],3.32 µM (active)
same,IC50,[8],1.28 µM (active)
same,EC50,[9],0.893 µM (active)
same,CC50,Vero,5.35 µM (active)
same,AC50,Paired box protein Pax-8,2.66 µM (active)
NC(=S)N=Nc1c(O)n(CCCl)c2ccccc12,IC50,[10],18 µM (active)
same,IC50,Bcl-2-related protein A1,> 20 µM (inactive)
same,IC50,[11],10.8 µM (active)
COc1ccccc1Cc1nc(N)nn1-c1ccccc1,IC50,[12],> 100 µM (not active)
same,IC50,[13],> 100 µM (inactive)
same,IC50,[14],> 100 µM (inactive)
O=C(O)c1cc(-c2ccc(Cl)cc2Cl)[nH]n1,IC50,[12],> 100 µM (not active)
same,IC50,[13],0.392 µM (active)
same,IC50,[14],> 100 µM (inactive)
CCn1c(=O)cc(SCC(=O)N2CCN(C3CCCCC3)CC2)c2ccccc21,IC50,[10],14.5 µM (active)
same,IC50,Bcl-2-related protein A1,> 20 µM (inactive)
same,EC50,[15],> 79.4 µM (inactive)
same,EC50,[16],> 79.4 µM (not active)
same,IC50,[11],> 20 µM (inactive)
same,EC50,[17],> 79.4 µM (not active)
Cc1cc(C=C2C(=O)NC(=S)NC2=O)c(C)n1-c1ccc2c(c1)OCO2,CC50,[18],14.3 µM (active)
same,CC50,[19],> 40 µM (active)
same,AC50,[20],9.41 µM (active)
Brc1ccc2ncnc(NCc3ccco3)c2c1,IC50,HEK293 [21],4.57 µM (active)
same,EC50,[22],6.5 µM (active)
same,EC50,HEK293 [23],3.41 µM (active)
same,IC50,HEK293 [24],5.54 µM (active)
same,IC50,HEK293 [25],> 20 µM (inactive)
same,IC50,HEK293 [26],> 20 µM (inactive)
COc1ccc(NC(NC(=O)c2cccnc2)C(Cl)(Cl)Cl)cc1 (centres undefined),IC50,Coagulation factor XII,> 50 µM (inactive)
CCOC(=O)c1sc(N(C)C(C)=O)nc1C,IC50,Coagulation factor XII,> 50 µM (inactive)
Cc1ccc(/C=N/NC(=O)CSc2nnc(-c3ccc(Cl)cc3)n2-c2ccccc2)o1,EC50,[1],> 100 µM (inactive)
